These compounds were tested against T1, human bradykinin B2 receptor (hB2R) (Homo sapiens, UniProt P30411) (assay: cell-based human bradykinin B2 receptor calcium mobilization (hB2R-CaM) assay). Details: HTS041C cells, bradykinin at EC80, calcium mobilization; read-out: IC50-value towards human bradykinin B2 receptor (hB2R).
T1 sequence (P30411 1-391): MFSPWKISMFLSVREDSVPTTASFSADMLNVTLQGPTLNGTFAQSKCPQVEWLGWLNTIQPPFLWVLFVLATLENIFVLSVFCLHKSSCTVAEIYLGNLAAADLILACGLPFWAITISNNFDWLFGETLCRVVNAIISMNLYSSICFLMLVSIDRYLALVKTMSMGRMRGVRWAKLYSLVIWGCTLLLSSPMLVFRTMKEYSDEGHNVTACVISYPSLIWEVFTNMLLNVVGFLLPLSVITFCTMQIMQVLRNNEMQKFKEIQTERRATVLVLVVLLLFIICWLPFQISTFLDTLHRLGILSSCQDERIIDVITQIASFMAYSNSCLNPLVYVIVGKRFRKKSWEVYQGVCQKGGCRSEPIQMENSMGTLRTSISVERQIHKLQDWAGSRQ
Outline: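 HTS041C cells stably expressing hB2R were serum-reduced, loaded with Calcium 6 dye and pre-incubated with compound (8-point, n=2, 0.1% DMSO) for 25 min at 37° C. Bradykinin was then added at EC80. IC50 came from a 4-parameter logistic fit of the max-min fluorescence signal (485/525 nm).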
For Cc1cc(-n2nc(C)nc2C)c2cccc(OCc3c(Cl)cc(F)cc3[C@H](C)NC(=O)c3ccon3)c2n1 [Compound 135], the IC50 was 51 to 250 nM. Compound Cc1cc(-n2nc(C)nc2C)c2cccc(OCc3c(Cl)cc(F)cc3[C@H](C)NC(=O)c3cc(C)on3)c2n1 [Compound 136] has an IC50 of 51 to 250 nM. For Cc1cc(-n2nc(C)nc2C)c2cccc(OCc3c(Cl)cc(F)cc3[C@H](C)NC(=O)c3coc(C)n3)c2n1 [Compound 137], the IC50 was 51 to 250 nM. Work on Cc1cc(-n2nc(C)nc2C)c2cccc(OCc3c(Cl)cc(F)cc3[C@H](C)NC(=O)C(C)(C)O)c2n1 [Compound 138] yielded an IC50 of 51 to 250 nM. For Cc1cc(-n2nc(C)nc2C)c2cccc(OCc3c(Cl)cc(F)cc3[C@H](C)NC(=O)COC(F)(F)F)c2n1 [Compound 139], the IC50 was ≤ 50 nM. CCn1ncnc1-c1cc(C)nc2c(OCc3c(Cl)cc(F)cc3[C@H](C)NC(=O)COC(F)F)cccc12 [Compound 140] was tested, and the IC50 was ≤ 50 nM. In the case of CCn1ncnc1-c1cc(C)nc2c(OCc3c(Cl)cc(F)cc3[C@H](C)NC(=O)c3ccon3)cccc12 [Compound 141], the IC50 is reported as ≤ 50 nM. In the case of CCn1ncnc1-c1cc(C)nc2c(OCc3c(Cl)cc(F)cc3[C@H](C)NC(=O)c3coc(C)n3)cccc12 [Compound 142], the IC50 is reported as ≤ 50 nM. With CCn1ncnc1-c1cc(C)nc2c(OCc3c(Cl)cc(F)cc3[C@H](C)NC(=O)C(C)(C)O)cccc12 [Compound 143] the IC50 was ≤ 50 nM. With Cc1cc(-c2ncnn2C)c2cccc(OCc3c(Cl)cc(F)cc3[C@H](C)NC(=O)C3CCCCC3)c2n1 [Compound 144] the IC50 was ≤ 50 nM. In the case of CCn1ncnc1-c1cc(C)nc2c(OCc3c(Cl)cc(F)cc3[C@H](C)NC(=O)COC(F)(F)F)cccc12 [Compound 145], the IC50 is reported as ≤ 50 nM. Cc1cc(-n2cc(F)cn2)c2cccc(OCc3c(Cl)cc(F)cc3[C@H](C)NC(=O)C(F)F)c2n1 [Compound 146] showed an IC50 of 51 to 250 nM. With Cc1cc(-c2ncnn2C)c2cccc(OCc3c(Cl)cc(F)cc3[C@H](C)NC(=O)C(F)F)c2n1 [Compound 147] the IC50 was ≤ 50 nM. For CC[C@H](NC(=O)C(F)F)c1cc(F)cc(Cl)c1COc1cccc2c(-c3ncnn3C)cc(C)nc12 [Compound 148], the IC50 was ≤ 50 nM. CC[C@H](NC(=O)c1coc(C)n1)c1cc(F)cc(Cl)c1COc1cccc2c(-c3ncnn3C)cc(C)nc12 [Compound 149] was tested, and the IC50 was ≤ 50 nM. For CC[C@H](NC(=O)c1ccon1)c1cc(F)cc(Cl)c1COc1cccc2c(-c3ncnn3C)cc(C)nc12 [Compound 150], the IC50 was ≤ 50 nM. CC[C@H](NC(=O)C(F)F)c1cc(F)cc(Cl)c1COc1cccc2c(-n3cc(F)cn3)cc(C)nc12 [Compound 151] was tested, and the IC50 was 51 to 250 nM. CC[C@H](NC(=O)c1coc(C)n1)c1cc(F)cc(Cl)c1COc1cccc2c(-n3cc(F)cn3)cc(C)nc12 [Compound 152] was tested, and the IC50 was 51 to 250 nM. CC[C@H](NC(=O)c1ccon1)c1cc(F)cc(Cl)c1COc1cccc2c(-n3cc(F)cn3)cc(C)nc12 [Compound 153] showed an IC50 of 51 to 250 nM. With CC[C@H](NC(=O)c1cocn1)c1cc(F)cc(Cl)c1COc1cccc2c(-c3ncnn3C)cc(C)nc12 [Compound 155] the IC50 was ≤ 50 nM. With Cc1cc(-n2ncnc2C)c2cccc(OCc3c(Cl)cc(F)cc3[C@H](C)NC(=O)c3coc(C)n3)c2n1 [Compound 156] the IC50 was ≤ 50 nM. Cc1cc(-n2ncnc2C)c2cccc(OCc3c(Cl)cc(F)cc3[C@H](C)NC(=O)c3ccon3)c2n1 [Compound 157] was tested, and the IC50 was ≤ 50 nM. Cc1cc(-n2ncnc2C)c2cccc(OCc3c(Cl)cc(F)cc3[C@H](C)NC(=O)c3cc(C)on3)c2n1 [Compound 158] was tested, and the IC50 was ≤ 50 nM. With Cc1cc(-n2ncnc2C)c2cccc(OCc3c(Cl)cc(F)cc3[C@H](C)NC(=O)c3cocn3)c2n1 [Compound 159] the IC50 was ≤ 50 nM. For Cc1cc(-n2ncnc2C)c2cccc(OCc3c(Cl)cc(F)cc3[C@H](C)NC(=O)C(C)(C)O)c2n1 [Compound 160], the IC50 was ≤ 50 nM. In the case of Cc1cc(-n2ncnc2C)c2cccc(OCc3c(Cl)cc(F)cc3[C@H](C)NC(=O)COC(F)(F)F)c2n1 [Compound 161], the IC50 is reported as ≤ 50 nM. With Cc1cc(-c2ncnn2C)c2cccc(OCc3c(Cl)cc(F)cc3[C@H](C)NC(=O)c3cccnc3)c2n1 [Compound 162] the IC50 was ≤ 50 nM. In the case of Cc1cc(-c2ncnn2C)c2cccc(OCc3c(Cl)cc(F)cc3[C@H](C)NC(=O)c3ccncc3)c2n1 [Compound 163], the IC50 is reported as ≤ 50 nM. With Cc1cc(-c2ncnn2C)c2cccc(OCc3c(Cl)cc(F)cc3[C@H](C)NC(=O)c3ccccn3)c2n1 [Compound 164] the IC50 was ≤ 50 nM. For CC[C@H](NC(=O)c1cocn1)c1cc(F)cc(Cl)c1COc1cccc2c(-n3ncnc3C)cc(C)nc12 [Compound 165], the IC50 was ≤ 50 nM. In the case of CC[C@H](NC(=O)COC(F)F)c1cc(F)cc(Cl)c1COc1cccc2c(-n3ncnc3C)cc(C)nc12 [Compound 166], the IC50 is reported as ≤ 50 nM. For CC[C@H](NC(=O)COC(F)(F)F)c1cc(F)cc(Cl)c1COc1cccc2c(-n3ncnc3C)cc(C)nc12 [Compound 167], the IC50 was ≤ 50 nM. [2H][C@@](C)(NC(=O)COC(F)F)c1cc(F)cc(Cl)c1COc1cccc2c(-n3ncnc3C)cc(C)nc12 [Compound 168] was tested, and the IC50 was ≤ 50 nM. CCc1ncnn1-c1cc(C)nc2c(OCc3c(Cl)cc(F)cc3[C@H](C)NC(=O)COC(F)F)cccc12 [Compound 169] was tested, and the IC50 was ≤ 50 nM. In the case of CCc1ncnn1-c1cc(C)nc2c(OCc3c(Cl)cc(F)cc3[C@H](C)NC(=O)c3cocn3)cccc12 [Compound 170], the IC50 is reported as ≤ 50 nM. CCc1ncnn1-c1cc(C)nc2c(OCc3c(Cl)cc(F)cc3[C@H](C)NC(=O)C(C)(C)O)cccc12 [Compound 171] was tested, and the IC50 was ≤ 50 nM. With CCc1ncnn1-c1cc(C)nc2c(OCc3c(Cl)cc(F)cc3[C@H](C)NC(=O)C(C)F)cccc12 (some centres unmarked) [Compound 172] the IC50 was ≤ 50 nM. Cc1cc(-n2ncnc2C)c2cccc(OCc3c(Cl)cc(F)cc3[C@H](C)NC(=O)CC(F)F)c2n1 [Compound 173] was tested, and the IC50 was ≤ 50 nM. In the case of Cc1cc(-n2ncnc2C)c2cccc(OCc3c(Cl)cc(F)cc3[C@H](C)NC(=O)C(F)F)c2n1 [Compound 174], the IC50 is reported as ≤ 50 nM. For Cc1cc(-c2ccnn2C)c2cccc(OCc3c(Cl)cc(F)cc3[C@H](C)NC(=O)COC(F)F)c2n1 [Compound 175], the IC50 was ≤ 50 nM. In the case of Cc1cc(-c2ccnn2C)c2cccc(OCc3c(Cl)cc(F)cc3[C@H](C)NC(=O)C(F)F)c2n1 [Compound 176], the IC50 is reported as ≤ 50 nM. Cc1cc(-c2ncnn2C)c2cccc(OCc3c(Cl)cc(F)cc3[C@H](C)NC(=O)CC(F)(F)F)c2n1 [Compound 177] was tested, and the IC50 was ≤ 50 nM. Cc1cc(-c2ncnn2C)c2cccc(OCc3c(Cl)cc(F)cc3[C@H](C)NC(=O)C(C)(F)F)c2n1 [Compound 178] was tested, and the IC50 was ≤ 50 nM. For Cc1cc(-n2ncnc2C)c2cccc(OCc3c(Cl)cc(F)cc3[C@H](C)NC(=O)CC(F)(F)F)c2n1 [Compound 179], the IC50 was ≤ 50 nM. Cc1cc(-n2ncnc2C)c2cccc(OCc3c(Cl)cc(F)cc3[C@H](C)NC(=O)C(C)(F)F)c2n1 [Compound 180] was tested, and the IC50 was ≤ 50 nM. For [2H][C@@](C)(NC(=O)CC(F)(F)F)c1cc(F)cc(Cl)c1COc1cccc2c(-c3ncnn3C)cc(C)nc12 [Compound 181], the IC50 was ≤ 50 nM. With [2H][C@@](C)(NC(=O)C(C)(F)F)c1cc(F)cc(Cl)c1COc1cccc2c(-c3ncnn3C)cc(C)nc12 [Compound 182] the IC50 was ≤ 50 nM. With [2H][C@@](C)(NC(=O)C(F)F)c1cc(F)cc(Cl)c1COc1cccc2c(-c3ncnn3C)cc(C)nc12 [Compound 183] the IC50 was ≤ 50 nM. Cc1cc(-c2ccnn2C)c2cccc(OCc3c(Cl)cc(F)cc3[C@H](C)NC(=O)C(C)(C)O)c2n1 [Compound 184] was tested, and the IC50 was ≤ 50 nM. For Cc1cc(-c2[nH]ncc2C)c2cccc(OCc3c(Cl)cc(F)cc3[C@H](C)NC(=O)COC(F)F)c2n1 [Compound 185], the IC50 was ≤ 50 nM. Compound Cc1cc(-c2[nH]ncc2C)c2cccc(OCc3c(Cl)cc(F)cc3[C@H](C)NC(=O)C(F)F)c2n1 [Compound 186] has an IC50 of 51 to 250 nM. For Cc1cc(-c2[nH]ncc2C)c2cccc(OCc3c(Cl)cc(F)cc3[C@H](C)NC(=O)c3cnco3)c2n1 [Compound 187], the IC50 was ≤ 50 nM. With Cc1cc(-c2[nH]ncc2C)c2cccc(OCc3c(Cl)cc(F)cc3[C@H](C)NC(=O)[C@@H](C)O)c2n1 [Compound 188] the IC50 was ≤ 50 nM. For Cc1cc(-c2[nH]ncc2C)c2cccc(OCc3c(Cl)cc(F)cc3[C@H](C)NC(=O)C(C)(C)O)c2n1 [Compound 189], the IC50 was ≤ 50 nM. For Cc1cc(-c2ncnn2C)c2cccc(OCc3c(Cl)cc(F)cc3[C@H](CO)NC(=O)COC(F)F)c2n1 [Compound 190], the IC50 was ≤ 50 nM. Cc1cc(-c2ncnn2C)c2cccc(OCc3c(Cl)cc(F)cc3[C@H](CO)NC(=O)c3cnco3)c2n1 [Compound 191] was tested, and the IC50 was ≤ 50 nM. With Cc1cc(-c2ccnn2C)c2cccc(OCc3c(Cl)cc(F)cc3[C@H](C)NC(=O)[C@@H](C)O)c2n1 [Compound 192] the IC50 was ≤ 50 nM. For Cc1cc(-n2ncnc2C)c2cccc(OCc3c(Cl)cc(F)cc3[C@H](C)NC(=O)C(C)F)c2n1 (some centres unmarked) [Compound 193], the IC50 was ≤ 50 nM. For Cc1cc(-c2ccnn2C)c2cccc(OCc3c(Cl)cc(F)cc3[C@H](C)NC(=O)CO)c2n1 [Compound 194], the IC50 was ≤ 50 nM. With Cc1cc(-c2ccnn2C)c2cccc(OCc3c(Cl)cc(F)cc3[C@H](C)NC(=O)[C@H](C)O)c2n1 [Compound 195] the IC50 was ≤ 50 nM. For Cc1cc(-c2ccnn2C)c2cccc(OCc3c(Cl)cc(F)cc3[C@H](C)NC(=O)c3cnco3)c2n1 [Compound 196], the IC50 was ≤ 50 nM. With Cc1cc(-c2ncnn2C)c2cccc(OCc3c(Cl)cc(F)cc3[C@H](C)NC(=O)CC(F)F)c2n1 [Compound 197] the IC50 was ≤ 50 nM.

— US11820756B2, “Bradykinin B2 receptor antagonists” (Pharvaris Netherlands B.V., priority 2017, dated 2023)
